From patent US20180036270A1, “A METHOD OF PROTECTING AGAINST CARBONYL STRESS INDUCED ISCHEMIA-REPERFUSION INJURY IN THE DIABETIC BRAIN VIA ADMINISTRATION OF N-ACETYLCYSTEINE” (Board of Supervisors of Louisiana State University and …, priority 2015, published 2018)
“Also recorded” adds a separate entry of the source.

What was measured:
[1] = test system: human brain microvascular endothelial cells (IHECs); assay: MG-occludin adduct formation in IHECs (Western blot, immunoprecipitation); format: cell-based; conditions: IHECs in 5 mM glucose exposed to MG for 4 h with 2 mM NAC
[2] = test system: MG-protein adducts, occludin, GCLc in diabetic mouse brain; assay: Western blot of MG-protein adducts, occludin, GCLc and occludin glycation in brain; format: in vivo; conditions: STZ mice, NAC 3 weeks
Description: Representative immunoblots are shown. The bar graphs show the quantitation of the protein band intensities normalized to β-actin; n=5/grp. […] Brain tissues were homogenized with RIPA lysis buffer containing 50 mM Tris, pH 8.0, 150 mM sodium chloride, 0.5% sodium deoxycholate, 0.1% SDS and protease inhibitor cocktail. Total protein (20 μg) per sample was loaded on 10% SDS-polyacrylamide gels. Electrophoresis was performed at 150V for 1 h, and transfer onto PVDF membranes at 100 V for 1 h. The membranes were blocked in 5% nonfat milk in TBST buffer containing 20 mM Tris, 137 mM NaCl, 0.1% Tween20, pH 7.6 for 40 min at room temperature followed by overnight incubation with either rabbit-anti-mouse occludin polyclonal antibody (1:2000), rabbit-anti-mouse GCGc polyclonal antibody (1:2000) or mouse anti-MG monoclonal antibody (1:2000) at 4° C. on an agitator. The second day, the PVDF membranes were incubated with HRP-conjugated goat-anti-rabbit or sheep-anti-mouse secondary antibody (1:10000) for 2 h at room temperature. Protein expression was detected using enhanced chemiluminescence (BIO-RAD) according to the manufacturer's instructions. The membranes were stripped and reprobed with anti-mouse actin monoclonal antibody (1:5000) to verify equal protein loading.

[3] = test system: STZ-treated diabetic mice, I/R brain injury; assay: Middle cerebral artery occlusion-reperfusion (MCAoR) brain infarct area in diabetic mice; format: in vivo, mouse; conditions: 2 mM NAC in drinking water 1 or 3 weeks before MCAoR, 45 min ischemia, 24 h reperfusion
Description: Turning now to FIGS. 1A-1C, a brief description concerning the various components of the present invention will now be briefly discussed. As shown, ischemia/reperfusion (I/R) injury in control and diabetic brain was determined using the middle cerebral artery occlusion-reperfusion (MCAoR) model of Koizumi. MCA occlusion was for 45 min and reperfusion for 24 h. Diabetes model were: mice injected with streptozotocin (STZ) or Akita mice lacking the Insulin-2 gene which spontaneously developed diabetes in 4 wks. Results are mean±SE. NT=no treatment; Veh=citrate buffer; Veh+STZ=4 week post STZ. Ak—Akita. The post I/R infarct area is represented by the unstained (white) regions of left brain sections.
Turning to FIGS. 12A-12C, I/R injury in control and diabetic brain was determined using the middle cerebral artery occlusion-reperfusion (MCAoR) model of Koizumi. MCA occlusion was for 45 min and reperfusion for 24 h. Diabetes was induced with streptozotocin (STZ) and stroke was induced in 4-week diabetic mice. NAC (2 mM) was given in drinking water for 3 weeks. Results are mean±SE. Veh=citrate buffer; STZ=4 week post STZ. The post I/R infarct area is represented by the unstained (white) regions of left brain sections after staining with TTC.
Four-week-old male C57BL/6J mice, weighing 18-20 g, were purchased from Jackson Laboratory. […]

[4] = test system: platelet-leukocyte aggregates (PLAs); assay: Platelet-leukocyte aggregate formation in STZ diabetic mice; format: in vivo, mouse; conditions: 5 and 19 week diabetic mice; NAC 2 mM for 2 weeks
Description: Turning to FIGS. 25A-25D, the percent of circulating leukocytes forming aggregates with platelets at 5 weeks of diabetes is shown (FIG. 25A). Aggregate formation between platelets and leukocyte subpopulations include: lymphocytes (FIG. 25B), neutrophils (FIG. 25C) and monocytes (FIG. 25D). Non-diabetic (vehicle-treated (Veh)), diabetic (STZ) and diabetic mice treated with NAC (2 mM for 2 weeks) were assessed. Turning to FIGS. 26A-26D, the percent of circulating leukocytes forming aggregates with platelets at 19 weeks of diabetes is shown (FIG. 26A). Aggregate formation between platelets and leukocyte subpopulations include: lymphocytes (FIG. 26B), neutrophils (FIG. 26C) and monocytes (FIG. 26D). Non-diabetic (vehicle-treated (Veh)), diabetic (STZ) and diabetic mice treated with NAC (2 mM for 2 weeks) were assessed.

CC(=O)N[C@@H](CS)C(=O)O [NAC, N-acetylcysteine]
occludin glycation (MG-occludin adduct) [1]: prevent the formation of MG-occludin adducts; also recorded: prevented
MG-adduct formation in brain [2]: significantly decreased
occludin glycation in brain (immunoprecipitation) [2]: significantly decreased
total protein expression of GCLc [2]: does not alter
total protein expression of occludin [2]: does not alter
percent infarct area [3]: significantly attenuated; also recorded: protects the diabetic brain against injury induced by I/R
platelet-leukocyte aggregate (PLA) formation [4]: effectively normalized
